In patent US20160046656A1, “NOVEL PHYTOSPHINGOSINE-1-PHOSPHATE DERIVATIVE, PREPARATION METHOD THEREFOR, AND COMPOSITION FOR PREVENTING AND TREATING HAIR LOSS OR FOR GROWING HAIR COMPRISING SAME” (PHYTOS CO., LTD., priority 2013, published 2016):

What was measured:
[1] = test system: procollagen type I; assay: Collagen synthesis, procollagen type I C-peptide EIA kit; format: cell-based; settings: human fibroblasts; for Collagen synthesis (%): 24 hours, serum free medium, 0 = 100; for synthesis of collagen, result in words: summary of Table 5
Procedure: (§1) To measure anti-wrinkle effects of N-C-P1P and O-C-P1P, effects of human fibroblasts on cell proliferation were measured via an MTT (3-[4,5-dimethylthiazol-2-yl]-2,5-diphenyltetrazolium bromide) assay. To observe collagen synthesis, procollagent type I, which is produced in human fibroblasts (e.g., dermal cells), were measured.
To measure collagen synthesis, the human fibroblasts (e.g., dermal cells) were cultured in the same conditions as above for 24 hours. After removing the medium therefrom, a new serum free medium was substituted. […] The culture medium was used to measure amounts of synthesized collagen by using a procollagen type I C-peptide EIA kit, and the results measured therefrom are shown in Table 5 below.

[2] = test system: C3H mice; assay: Hair growth test using C3H mice; format: in vivo, mouse; settings: for effects on hair growth compared to positive control group: 0.01 weight % solution once a day vs 3% minoxidil preparation (Mynoxyl)
Procedure: A 6-week C3H mouse was purchased, and the hair on a dorsal part of the mouse was partially removed. Then, hair removal cream was applied to the dorsal part to completely remove the existing hair. A mouse of which the hair was not completely removed was excluded from the test. After finishing the hair removal, 5 mice were randomly bred per cage, and a total of 5 cages were used.
The mice were left one day or so after finishing depilation, and a test compound, which was prepared by dissolving O-C-P1P of Example 4 and N-C-P1P of Example 5 in a mixed solution of ethanol and ethoxydiglycol (9:1, v/v) to a concentration of 0.01 weight %, was applied once a day to the area from which the hair was removed. A negative control group was prepared by applying a mixed solution of ethanol and ethoxydiglycol without using the test compound, and a positive control group was 3% minoxidil preparation (Mynoxyl, Hyundai Pharm). After applying samples to the area from which the hair was removed, images of the area captured at the 14th and 18th days are shown in FIG. 3. […]

[3] = test system: human fibroblasts; assay: Cell proliferation by MTT assay; format: cell-based; settings: for Cell Viability (%): MTT, 0 = 100; for cell proliferation, result in words: summary of Table 4
Procedure: as §1
To measure cell proliferation, human fibroblasts were cultured for 24 hours in a Dulbecco's modified eagle medium (DMEM) medium supplemented with 10% FBS and 100 unit/mL of penicillin/streptomycin. The culture circumstances comprising culturing in a 5% CO2 incubator maintained at a temperature of 37° c. Then, after removing the medium therefrom, N-C-P1P and O-C-P1P were added thereto at different concentrations. The MTT assay was performed to measure effects of N-C-P1P and O-C-P1P on cell proliferation, and the results are summarized in Table 4.

[4] = 0.01 weight % in ethanol/ethoxydiglycol (9:1, v/v), applied once a day to depilated area, images at 14th and 18th days, FIG. 3

Row | Compound | Collagen synthesis (%) ([1]; concentration 0.1 μM) | Collagen synthesis (%) ([1]; concentration 1 μM) | synthesis of collagen, result in words [1] | effects on hair growth compared to negative control group [2, 4] | effects on hair growth compared to positive control group ([2]; FIG. 3) | Cell Viability (%) ([3]; concentration 0.002%) | Cell Viability (%) ([3]; concentration 0.004%) | Cell Viability (%) ([3]; concentration 0.008%) | Cell Viability (%) ([3]; concentration 0.016%) | cell proliferation, result in words [3] | effects on hair growth compared to negative control group ([2]; 0.005, 0.01 and 0.02 weight % solutions, images at 13th and 17th days, FIG. 5) | difference in effects on hair growth among concentrations ([2]; 0.005 weight %, 0.01 weight % and 0.02 weight %, FIG. 5) | effects on hair growth compared to negative control group ([2]; liposomes containing O-C-P1P of Examples 6 and 7, once a day for 3 weeks, FIG. 4) | concentration giving the same effects on hair growth, times as low as the concentration of minoxidil ([2]; vs 3% minoxidil preparation)
1 | CCCCCCCCCCCCCC[C@@H](O)[C@@H](O)[C@@H]1COP(=O)(O)N1 [N-C-P1P, N-cyclic phytospingosine-1-phosphate] | 110 | 125 | promoting synthesis of collagen | significantly better | quite less | 120 | 110 | 110 | 125 | promoting cell proliferation |  |  |  | 
2 | CCCCCCCCCCCCCC[C@@H](O)[C@H]1OP(=O)(O)OC[C@@H]1N [O-C-P1P, O-cyclic phytospingosine-1-phosphate] | 120 | 140 | promoting synthesis of collagen | rapid growth of hair | effects on faster hair growth were shown better | 128 | 135 | 143 | 160 | promoting cell proliferation | significant effects on hair growth | no significant different | significant effects on hair growth | about 300 times
